How the values were obtained:
[1] = system: Alzheimer's disease; assay: phase III clinical trials (TRx-237-005 and TRx-237-015) for Alzheimer's disease; format: in vivo, patients; conditions: 8, 150, 200 or 250 mg/day; both trials
Description: Data from a phase III clinical trials (TRx-237-005 and TRx-237-015) for Alzheimer's disease was obtained. These clinical trials involved 1162 patients. Before the trials began, each patient's baseline measurements were collected, which included the patient's sex, age, baseline ADAS-Cog and mini-mental state examination (MMSE) score.
Patients were subsequently categorised into those with ‘low’ and ‘high’ plasma levels using a threshold based on the lower limit of quantitation of the assay on Day 1. […] Additionally, each patient entered the trial either already using the standard care of therapy or not. This yielded D=4 possible combinations: “low-using”, “low-none”, “high-using” and “high-none”. The trial spanned 5 visits with 13 weeks in between each visit. At each visit t, every patient i's progressive ADAS-Cog score, Yti∈ ? , was measured and recorded.

[2] = system: Alzheimer's disease; conditions: cited from earlier work
[3] = group with 'high' plasma levels, threshold based on lower limit of quantitation of the assay on Day 1

CN(C)c1ccc2c(c1)Sc1cc(N(C)C)ccc1N2.CS(=O)(=O)O.CS(=O)(=O)O [LMTM]
dose-response [1]: lack of dose-response
concentration-response relationships for steady-state plasma levels ([2]; 8 mg/day range): steep concentration-response relationships
differences in brain atrophy [2, 3]: highly significant differences
differences in cognitive decline [2, 3]: highly significant differences

From US20250069757A1, “METHOD OF PREDICTING ADAS-COG SCORE” (WisTa Laboratories Ltd., priority 2021, published 2025)
